Laboratory results published in the supplement of paper PMC10307832.

Key:
Experiment in all cases: relative viability (nuclei count vs DMSO), 5 days (fraction); higher = more cells survive
YM155 + Alpelisib = compound: COCC[n+]1c2c(n(Cc3cnccn3)c1C)C(=O)c1ccccc1C2=O [YM155] + Cc1nc(NC(=O)N2CCC[C@H]2C(N)=O)sc1-c1ccnc(C(C)(C)C(F)(F)F)c1 [Alpelisib] (partner 2 µM)
Summary of the method: (§1)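 Relative viability divides the nuclei count in treated wells by that in vehicle wells. Lung cancer cell lines were seeded in 1536-well plates, dosed by pin tool the next day, and fixed and stained after 5 days in one step with final 0.05% Triton X-100, 1% formaldehyde and 1 ug/ml Hoechst. Dosing was a single drug or a fixed anchor-drug dose plus five library-drug doses (not always all listed) in √10 steps, and values are medians of duplicate plates imaged at 4×.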

YM155 + Vorinostat = compound: COCC[n+]1c2c(n(Cc3cnccn3)c1C)C(=O)c1ccccc1C2=O [YM155] + O=C(CCCCCCC(=O)Nc1ccccc1)NO [Vorinostat] (partner 1 µM)
Summary of the method: as §1

YM155 + Linsitinib = compound: COCC[n+]1c2c(n(Cc3cnccn3)c1C)C(=O)c1ccccc1C2=O [YM155] + C[C@]1(O)C[C@@H](c2nc(-c3ccc4ccc(-c5ccccc5)nc4c3)c3c(N)nccn32)C1 [Linsitinib] (partner 1 µM)
Summary of the method: as §1

YM155 + OSI-027 = compound: COCC[n+]1c2c(n(Cc3cnccn3)c1C)C(=O)c1ccccc1C2=O [YM155] + COc1cccc2cc(-c3nc([C@H]4CC[C@H](C(=O)O)CC4)n4ncnc(N)c34)[nH]c12 [OSI-027] (partner 0.5 µM)
Summary of the method: as §1

Row | Cell Line | relative viability (YM155 + Alpelisib; first compound 0.002 µM) | relative viability (YM155 + Alpelisib; first compound 0.006325 µM) | relative viability (YM155 + Alpelisib; first compound 0.02 µM) | relative viability (YM155 + Alpelisib; first compound 0.06325 µM) | relative viability (YM155 + Vorinostat; first compound 0.002 µM) | relative viability (YM155 + Vorinostat; first compound 0.006325 µM) | relative viability (YM155 + Vorinostat; first compound 0.02 µM) | relative viability (YM155 + Vorinostat; first compound 0.06325 µM) | relative viability (YM155 + Linsitinib; first compound 0.002 µM) | relative viability (YM155 + Linsitinib; first compound 0.006325 µM) | relative viability (YM155 + Linsitinib; first compound 0.02 µM) | relative viability (YM155 + Linsitinib; first compound 0.06325 µM) | relative viability (YM155 + OSI-027; first compound 0.002 µM) | relative viability (YM155 + OSI-027; first compound 0.006325 µM) | relative viability (YM155 + OSI-027; first compound 0.02 µM) | relative viability (YM155 + OSI-027; first compound 0.06325 µM)
1 | NCI-H727 | 0.499 | 0.495 | 0.586 | 0.575 | 1.32 | 1.28 | 1.27 | 1.29 | 0.28 | 0.321 | 0.28 | 0.364 | 0.473 | 0.612 | 0.703 | 0.595
2 | NCI-H1975 | 0.627 | 0.665 | 0.581 | 0.549 | 0.661 | 0.667 | 0.641 | 0.442 | 1.03 | 1.06 | 0.861 | 0.842 | 0.596 | 0.742 | 0.67 | 0.541
3 | BEN | 1.1 | 1.06 | 0.965 | 1.13 | 0.516 | 0.511 | 0.619 | 0.679 | 0.922 | 1.03 | 0.878 | 0.929 | 0.268 | 0.311 | 0.304 | 0.29
4 | NCI-H2228 | 0.764 | 0.782 | 0.645 | 0.657 | 0.451 | 0.82 | 0.585 | 0.51 | 0.84 | 0.628 | 0.917 | 0.825 | 0.612 | 0.689 | 0.605 | 0.713
5 | NCI-H2023 | 0.589 | 0.671 | 0.594 | 0.156 | 0.738 | 0.817 | 0.792 | 0.171 | 0.744 | 0.699 | 0.659 | 0.305 | 0.442 | 0.455 | 0.403 | 0.195
6 | NCI-H1793 | – | 0.601 | 0.659 | 0.565 | 0.719 | 0.641 | 0.89 | 0.74 | – | 0.639 | 0.886 | 0.483 | 0.242 | 0.308 | 0.259 | 0.269
7 | NCI-H1993 | 0.691 | 0.726 | 0.673 | 0.657 | 0.739 | 0.714 | 0.667 | 0.523 | 0.678 | 0.701 | 0.777 | 0.697 | 0.563 | 0.569 | 0.583 | 0.522
8 | PC-3 [JPC-3] | 1.02 | 1.02 | 1.07 | 0.972 | 0.746 | 0.889 | 0.855 | 0.74 | 0.995 | 0.927 | 0.995 | 0.995 | 0.784 | 0.783 | 0.808 | 0.809
9 | NCI-H650 | 1.14 | 1.07 | 1.15 | 0.992 | 0.364 | 0.491 | 0.5 | 0.312 | 0.721 | 0.857 | 0.966 | 0.784 | 0.503 | 0.542 | 0.572 | 0.52
10 | NCI-H596 | – | 0.514 | 0.499 | 0.49 | 0.554 | 0.468 | 0.676 | 0.551 | – | 1.05 | 1.07 | 1.07 | 0.735 | 0.806 | 0.743 | 0.85
11 | NCI-H2087 | 0.903 | 1.06 | 1.03 | 0.822 | 0.667 | 0.759 | 0.55 | 0.44 | 0.979 | 0.741 | 0.861 | 0.868 | 0.492 | 0.567 | 0.715 | 0.618
12 | COR-L 105 | 1.1 | 1.3 | 0.945 | 0.588 | 0.77 | 0.875 | 0.905 | 0.541 | 1 | 1.13 | 1.04 | 0.672 | 0.574 | 0.694 | 0.762 | 0.54
13 | NCI-H2126 | 0.754 | 0.76 | 0.77 | 0.802 | 0.782 | 0.834 | 0.865 | 0.851 | 0.704 | 0.722 | 0.704 | 0.771 | 0.645 | 0.714 | 0.761 | 0.727
14 | NCI-H322M | 0.762 | 0.878 | 0.666 | 0.732 | 0.85 | 0.925 | 0.854 | 0.909 | 0.762 | 0.929 | 0.917 | 1.01 | 0.58 | 0.525 | 0.533 | 0.581
15 | NCI-H2009 | 1.2 | 1.14 | 1.11 | 0.504 | 0.685 | 0.693 | 0.726 | 0.621 | 1.2 | 1.25 | 1.13 | 0.217 | 0.567 | 0.604 | 0.647 | 0.382
16 | UMC-11 | 1.03 | 1.06 | 1 | 1.08 | 0.392 | 0.35 | 0.377 | 0.343 | 0.993 | 1.05 | 1.02 | 1.03 | 0.465 | 0.499 | 0.514 | 0.465
17 | EPLC-272H | 0.917 | 0.937 | 0.915 | 1.02 | 0.443 | 0.384 | 0.357 | 0.55 | 1.22 | 1.19 | 1.1 | 1.06 | 0.287 | 0.312 | 0.286 | 0.251
